{"source": "patent US20220370385A1", "about": "“COMPOSITIONS FOR USE IN INHIBITING SRC KINASE AND TREATING AND PREVENTING ASSOCIATED DISORDERS” (Enzene Biosciences Ltd., priority 2019, published 2022)", "key": {"[1]": {"test_system": "MDA-MB-468 cells", "assay": "MDA-MB-468 cell viability, CellTiter-Glo, 24 hrs", "type": "cell-based, human", "details": "Homo sapiens, 24 hrs incubation", "experimental": "MDA-MB-468 cells, isolated from a pleural effusion of a patient with metastatic adenocarcinoma of the breast, is a triple negative breast cancer (TNBC) cell line. The IC 50 value of E05 or lapatinib (Sigma) or the structural analogues of E05 were tested in this cell line.\nBriefly, MDA-MB-468 cells (ATCC #HTB-32) were seeded with a density of 5,000 cells per well in a 96 well white plate (Costar Cat #3917) in DMEM media supplemented with 10% FBS (assay medium). The plates were incubated at 37° C., 5% CO2 for 24 hr. E05 and analogues were diluted in the assay medium and added to the respective wells of the assay plate. The plates were further incubated at 37° C., 5% CO2 for 24 hrs. After the incubation, the cell viability was assessed using CellTiter-Glo® and the plates were read for luminescence using Cytation 5 (Biotek). The relative luminescence unit (RLU) obtained was plotted against the concentration and EC50 values were estimated using Graphpad Prism 5 software (FIG. 15 and Table 2)."}, "[2]": {"assay": "Repeated dose 7-day dose range finding study, intravenous bolus injection", "type": "in vivo", "details": "for Morbidity % / Morbidity No / Mortality % / Mortality No: i.v. bolus 7 days", "experimental": "Repeated dose 7-day dose range finding study (DRF) of E05 through intravenous bolus injection was carried out in Wistar rats."}}, "data": [{"smiles": "O=C(O)CCc1ccc(O)c(O)c1", "note": "[E05, 3-(3,4-Dihydroxyphenyl) propanoic acid]", "values": [{"measurement": "EC50", "setting": "[1]", "value": 86.1, "unit": "µM"}, {"measurement": "Morbidity %", "setting": "[2]; Female G2 125 mg/kg b. wt", "value": 0, "unit": "%"}, {"measurement": "Morbidity No", "setting": "[2]; Female G2 125 mg/kg b. wt", "value": 0}, {"measurement": "Mortality %", "setting": "[2]; Female G2 125 mg/kg b. wt", "value": 0, "unit": "%"}, {"measurement": "Mortality No", "setting": "[2]; Female G2 125 mg/kg b. wt", "value": 0}, {"measurement": "Morbidity %", "setting": "[2]; Female G3 250 mg/kg b. wt", "value": 0, "unit": "%"}, {"measurement": "Morbidity No", "setting": "[2]; Female G3 250 mg/kg b. wt", "value": 0}, {"measurement": "Mortality %", "setting": "[2]; Female G3 250 mg/kg b. wt", "value": 0, "unit": "%"}, {"measurement": "Mortality No", "setting": "[2]; Female G3 250 mg/kg b. wt", "value": 0}, {"measurement": "Morbidity %", "setting": "[2]; Female G4 500 mg/kg b. wt", "value": 0, "unit": "%"}, {"measurement": "Morbidity No", "setting": "[2]; Female G4 500 mg/kg b. wt", "value": 0}, {"measurement": "Mortality %", "setting": "[2]; Female G4 500 mg/kg b. wt", "value": 0, "unit": "%"}, {"measurement": "Mortality No", "setting": "[2]; Female G4 500 mg/kg b. wt", "value": 0}, {"measurement": "Morbidity %", "setting": "[2]; Male G2 125 mg/kg b. wt", "value": 0, "unit": "%"}, {"measurement": "Morbidity No", "setting": "[2]; Male G2 125 mg/kg b. wt", "value": 0}, {"measurement": "Mortality %", "setting": "[2]; Male G2 125 mg/kg b. wt", "value": 0, "unit": "%"}, {"measurement": "Mortality No", "setting": "[2]; Male G2 125 mg/kg b. wt", "value": 0}, {"measurement": "Morbidity %", "setting": "[2]; Male G3 250 mg/kg b. wt", "value": 0, "unit": "%"}, {"measurement": "Morbidity No", "setting": "[2]; Male G3 250 mg/kg b. wt", "value": 0}, {"measurement": "Mortality %", "setting": "[2]; Male G3 250 mg/kg b. wt", "value": 0, "unit": "%"}, {"measurement": "Mortality No", "setting": "[2]; Male G3 250 mg/kg b. wt", "value": 0}, {"measurement": "Morbidity %", "setting": "[2]; Male G4 500 mg/kg b. wt", "value": 0, "unit": "%"}, {"measurement": "Morbidity No", "setting": "[2]; Male G4 500 mg/kg b. wt", "value": 0}, {"measurement": "Mortality %", "setting": "[2]; Male G4 500 mg/kg b. wt", "value": 0, "unit": "%"}, {"measurement": "Mortality No", "setting": "[2]; Male G4 500 mg/kg b. wt", "value": 0}, {"measurement": "systemic toxicity", "setting": "[2]; up to 500 mg/kg b. wt., daily intravenous bolus, 7 consecutive days", "value": "did not produce any systemic toxicity"}]}]}
